Assay results reported in paper PMC11149917, “Translational and Therapeutic Evaluation of RAS-GTP Inhibition by RMC-6236 in RAS-Driven Cancers” (Cancer Discovery, 2024).
Where “and” joins values, the source holds several entries; their conditions need not be identical. Equal values may be shown once.

Tests used:
[1] = system: pERK in Capan-2 xenograft tumors; test: IHC whole-slide quantification; assay type: in vivo, mouse; settings: for pERK (% positive area): control 32.3
Method: (§1) All tissues were fixed for up to 24 hours using 10% neutral buffered formalin and then moved to 70% ethanol for long-term storage. FFPE sections (4 µm) were stained on the Biocare intelliPATH automated staining platform using the manufacturer’s recommended settings.
(§2) Anti–phospho-p44/42 MAPK (Erk1/2; Thr202/Tyr204) rabbit monoclonal antibody (Cell Signaling Technology, cat no. 4370, clone: D13.14.4E) was used at 1:200 with citrate-based pH 6.2 heat-induced epitope retrieval; an isotype control (rabbit IgG) was used under the same conditions.
(§3) All tissue sections were incubated with Biocare Peroxidase Blocker (Biocare, cat no. PX968) and Background Punisher (Biocare, cat no. BP974M) to block nonspecific background. MACH4 HRP-polymer Detection System (Biocare, cat no. MRH534) was used to detect rabbit primary antibodies.
(§4) DAB-stained slides were scanned and digitized with a Huron TissueScope LE120 whole-slide scanner at 200× magnification.
(§5) The EpCAM staining was used to identify epithelial cells. First, the area to be analyzed was delineated, excluding necrotic regions. The random forest tumor classifier from the HALO Image Analysis package was used to identify the tumor compartment. Three classes were created: glass, tumor (EpCAM-positive), and stroma. The tumor class mark was then copied onto the serial sections stained with various markers to perform the image analysis only on the tumor compartment.
(§6) Quantification of P-ERK and pS6 was performed with the HALO Image Analysis software from Indica labs using the Area Quantification module. The analysis was performed only on the tumor compartment copied from the EpCAM slide. The software was tuned to detect positive DAB staining (brown color). Percentage of area positivity was chosen to represent the results (area positive for brown/total area); and subjected to statistical analysis using GraphPad Prism (Dunnett multiple comparisons test).

[2] = system: pERK in NCI-H441 xenograft tumors; test: IHC whole-slide quantification; assay type: in vivo, mouse; settings: control 33.1
Method: as §1, §2, §3, §4, §5, §6

Ki67 in ear skin = test: IHC whole-slide quantification; assay type: in vivo, mouse; settings: control 5.4
[3] = system: DUSP6 mRNA in human tumors; design: method as in IND M4 report; settings: Human PK Model Parameters; apparent value; ref IND M4 report; cited from earlier work
wild-type HRAS = wild-type HRAS (Homo sapiens, UniProt P01112+P62937); test: RAS-RAF TR-FRET; assay type: biochemical; settings: 25 µmol/L CypA, read-out: EC50, disruption of RAF-RBD binding
[4] = system: DUSP6 mRNA in HPAC xenograft tumors; test: In vivo PD by DUSP6 qPCR and PK/PD relationship; design: species or system mouse; settings: for % inhibition of DUSP6 vs control: individual animals
Method: Tumor-bearing animals were randomized and assigned into groups (n = 1–10/group). The vehicle at 10 mL/kg or RMC-6236 at indicated doses was administered via oral gavage daily, and animals were treated for 28 days, or up to 90 days if PFS was being assessed. […] For single-dose PKPD study, mice were randomized and assigned into groups (n = 3/dose/time point). A single dose of RMC-6236 was administered orally at either 3, 10, or 25 mg/kg. Blood and tissues, including the tumor, brain, colon, ear skin, and muscle, were harvested at indicated time points. Whole blood was collected in K2EDTA Microtainer tubes, incubated for 5 minutes, and snap-frozen in liquid nitrogen. The tissue was either fixed in 10% formalin or snap-frozen in liquid nitrogen for further analysis.
RNA was extracted from at least 20 mg of tissue using an RNeasy Mini Kit (Qiagen, 74104) and a High-Throughput Tissue grinder following the manufacturer's protocol. Reverse transcription was carried out using High-Capacity cDNA Reverse Transcription Kit (ABI, 4368814) according to the manufacturer's protocol. The cDNA product was used for qPCR analysis using TaqMan Gene-Expression Master Mix (ABI, 4369016). TaqMan primer probes specific to DUSP6 (human—Hs00737962_m1, murine—Mm00518185_m1, FAM-MGB) and 18S (RNA18S1; human—Hs99999901_s1, murine—Mm03928990_g1, FAM-MGB, used as an internal control gene) were used to detect the levels from each sample in duplicates using a 10 µL final reaction volume in a 384-well clear optical reaction plate. For qPCR, Ct values of DUSP6 and 18S were obtained for analysis. DUSP6 Ct value was normalized to 18S, and then the mean relative mRNA expression levels of each group were normalized to the vehicle control group. Values were plotted as relative change in mRNA expression compared with vehicle. Means ± SEM were shown.
Concentrations of RMC-6236 in tumor or normal tissues and percentage of DUSP6 inhibition as compared with the vehicle control from individual animals were collected and analyzed post a single dose of RMC-6236 ranging from 0.3 to 100 mg/kg (Supplementary Table S6). A 3-parameter sigmoidal exposure–response model was fitted to the data in GraphPad Prism to derive EC50 and EC90 values.

Chain of wild-type HRAS (P01112 1-169): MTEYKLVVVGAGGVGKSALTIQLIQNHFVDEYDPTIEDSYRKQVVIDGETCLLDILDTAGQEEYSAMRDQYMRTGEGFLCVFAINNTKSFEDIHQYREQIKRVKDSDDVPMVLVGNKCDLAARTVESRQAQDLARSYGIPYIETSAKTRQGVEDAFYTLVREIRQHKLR
Chain of wild-type HRAS (P62937 whole entry): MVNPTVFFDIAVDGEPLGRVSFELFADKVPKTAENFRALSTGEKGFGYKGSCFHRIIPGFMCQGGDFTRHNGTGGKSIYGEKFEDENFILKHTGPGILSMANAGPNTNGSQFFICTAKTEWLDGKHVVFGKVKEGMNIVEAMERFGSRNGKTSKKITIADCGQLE

CCn1c(-c2cc(N3CCN(C)CC3)cnc2[C@H](C)OC)c2c3cc(ccc31)-c1csc(n1)C[C@H](NC(=O)[C@H]1C[C@@H]1C)C(=O)N1CCC[C@H](N1)C(=O)OCC(C)(C)C2 [RMC-6236]
pERK (% positive area) ([1]; Capan-2 (3 mg/kg), 8h): 7.6%
pERK (% positive area) ([1]; Capan-2 (3 mg/kg), 24h): 14.0%
pERK (% positive area) ([1]; Capan-2 (3 mg/kg), 48hr): 17.6%
pERK (% positive area) ([1]; Capan-2 (10 mg/kg), 8h): 2.8%
pERK (% positive area) ([1]; Capan-2 (10 mg/kg), 24h): 3.7%
pERK (% positive area) ([1]; Capan-2 (10 mg/kg), 48hr): 14.3%
pERK (% positive area) ([1]; Capan-2 (25 mg/kg x 7d), 8h): 4.4%
pERK (% positive area) ([1]; Capan-2 (25 mg/kg x 7d), 24h): 9.2%
pERK (% positive area) ([1]; Capan-2 (25 mg/kg x 7d), 48hr): 18.9%
pERK (% positive area) ([1]; Capan-2 (25 mg/kg), 8h): 3.1%
pERK (% positive area) ([1]; Capan-2 (25 mg/kg), 24h): 6.3%
pERK (% positive area) ([1]; Capan-2 (25 mg/kg), 48hr): 14.8%
inhibition at 25 mg/kg ([1]; Mus musculus, Capan-2, 25 mg/kg, up to 24 hours post-dose, read-out: inhibition of pERK levels in tumors (IHC)): > 80%
pERK (% positive area) ([2]; NCI-H441 (3 mg/kg), 8h): 6.8%
pERK (% positive area) ([2]; NCI-H441 (3 mg/kg), 24h): 7.7%
pERK (% positive area) ([2]; NCI-H441 (3 mg/kg), 48hr): 8.6%
pERK (% positive area) ([2]; NCI-H441 (10 mg/kg), 8h): 0.949%
pERK (% positive area) ([2]; NCI-H441 (10 mg/kg), 24h): 3.6%
pERK (% positive area) ([2]; NCI-H441 (10 mg/kg), 48hr): 3.6%
pERK (% positive area) ([2]; NCI-H441 (25 mg/kg), 8h): 0.23%
pERK (% positive area) ([2]; NCI-H441 (25 mg/kg), 24h): 1.1%
pERK (% positive area) ([2]; NCI-H441 (25 mg/kg), 48hr): 3.4%
Ki67 (% positive cells) (Ki67 in ear skin; Ear Skin (25 mg/kg x7d), 8h): 5.3%
Ki67 (% positive cells) (Ki67 in ear skin; Ear Skin (25 mg/kg x7d), 24h): 3.3%
Ki67 (% positive cells) (Ki67 in ear skin; Ear Skin (25 mg/kg x7d), 48hr): 6.4%
Ki67 (% positive cells) (Ki67 in ear skin; Ear Skin (25 mg/kg), 8h): 5.2%
Ki67 (% positive cells) (Ki67 in ear skin; Ear Skin (25 mg/kg), 24h): 3.1%
Ki67 (% positive cells) (Ki67 in ear skin; Ear Skin (25 mg/kg), 48hr): 5.9%
V/F [3]: 10.828 L/kg
EC50 (wild-type HRAS): 0.082 µM
% inhibition of DUSP6 vs control ([4]; HPAC #3, 50 mg/kg, 4h): 99.6% and 99.3%
% inhibition of DUSP6 vs control ([4]; HPAC #3, 50 mg/kg, 8h): 99.8% and 99.7%
% inhibition of DUSP6 vs control ([4]; HPAC #3, 50 mg/kg, 24h): 99.9% and 99.8%
% inhibition of DUSP6 vs control ([4]; HPAC #3, 50 mg/kg, 48h): 99.3% and 98% and 97.1%
% inhibition of DUSP6 vs control ([4]; HPAC #4, 3 mg/kg, 4h): 8.1% and 58% and 27.9%
% inhibition of DUSP6 vs control ([4]; HPAC #4, 3 mg/kg, 8h): 54.7% and 65.2% and 84.3%
% inhibition of DUSP6 vs control ([4]; HPAC #4, 3 mg/kg, 24h): 0% and 40.8% and 37.2%
% inhibition of DUSP6 vs control ([4]; HPAC #4, 3 mg/kg, 48h): 0% and 22.7% and 33.9%
% inhibition of DUSP6 vs control ([4]; HPAC #4, 10 mg/kg, 4h): 93.6% and 96.1% and 97.9%
% inhibition of DUSP6 vs control ([4]; HPAC #4, 10 mg/kg, 8h): 98.9% and 99.6% and 97.1%
% inhibition of DUSP6 vs control ([4]; HPAC #4, 10 mg/kg, 24h): 80.3% and 56.7% and 91.1%
% inhibition of DUSP6 vs control ([4]; HPAC #4, 10 mg/kg, 48h): 8.1% and 47% and 59.6%
% inhibition of DUSP6 vs control ([4]; HPAC #4, 25 mg/kg, 4h): 99.6% and 97.7% and 93.3%
% inhibition of DUSP6 vs control ([4]; HPAC #4, 25 mg/kg, 8h): 99.9% and 99.4% and 99.8%
% inhibition of DUSP6 vs control ([4]; HPAC #4, 25 mg/kg, 24h): 99.3% and 99.2% and 99.6%
% inhibition of DUSP6 vs control ([4]; HPAC #4, 25 mg/kg, 48h): 97.6% and 96.7% and 87.9%
% inhibition of DUSP6 vs control ([4]; HPAC #11, 0.3 mg/kg, 4h): 0% and 41.7%
% inhibition of DUSP6 vs control ([4]; HPAC #11, 0.3 mg/kg, 8h): 9.1% and 10.7% and 76.7%
% inhibition of DUSP6 vs control ([4]; HPAC #11, 0.3 mg/kg, 24h): 0%
% inhibition of DUSP6 vs control ([4]; HPAC #11, 0.3 mg/kg, 48h): 0%
% inhibition of DUSP6 vs control ([4]; HPAC #11, 1 mg/kg, 4h): 48.3% and 77.5% and 97.1%
% inhibition of DUSP6 vs control ([4]; HPAC #11, 1 mg/kg, 8h): 86.3% and 83.8% and 49.4%
% inhibition of DUSP6 vs control ([4]; HPAC #11, 1 mg/kg, 24h): 4.9% and 0% and 23.3%
% inhibition of DUSP6 vs control ([4]; HPAC #11, 1 mg/kg, 48h): 24.6% and 0% and 42.3%
EC50 ([4]; Mus musculus, HPAC, read-out: EC50, inhibition of DUSP6 expression vs RMC-6236 concentration (PK/PD relationship)): 0.135 µM
EC90 ([4]; Mus musculus, HPAC, read-out: EC90, inhibition of DUSP6 expression vs RMC-6236 concentration (PK/PD relationship)): 0.925 µM
